# In PubChem BioAssay (NCI):
#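 Method: 48-hour compound exposure of cells in 96-well plates, five concentrations, linear interpolation of endpoints. At the GI50, growth is halved. Definition used: TGI = concentration required for complete inhibition of growth.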
# Legend:
# Assay in all cases: inhibition of tumour cell growth, NCI panel, 48 h
# [1] = tested on: HOP-62 NSCLC
# [2] = tested on: KM12 colon
# [3] = tested on: SR leukemia
# [4] = tested on: MOLT-4 leukemia
# [5] = tested on: U251 CNS
# [6] = tested on: NCI-H460 lung
# [7] = tested on: SNB-19 CNS
# [8] = tested on: T-47D breast
# [9] = tested on: K-562 leukemia
# [10] = tested on: RXF 393 renal
# [11] = tested on: BT-549 breast
# [12] = tested on: HCC-2998 colon
# [13] = tested on: HT29 colon
# [14] = tested on: 786-0 renal
# [15] = tested on: UACC-62 melanoma
# [16] = tested on: EKVX NSCLC
# [17] = tested on: HCT-15 colon
# [18] = tested on: HL-60(TB) leukemia
# [19] = tested on: MALME-3M melanoma
# [20] = tested on: RPMI-8226 leukemia
# [21] = tested on: SK-OV-3 ovarian
# [22] = tested on: OVCAR-5 ovarian
# [23] = tested on: ACHN renal
# [24] = tested on: COLO 205 colon
# [25] = tested on: NCI-H522 lung
# [26] = tested on: NCI-H226 lung
# [27] = tested on: A549 NSCLC
# [28] = tested on: LOX IMVI melanoma
# [29] = tested on: MDA-MB-231 breast
# [30] = tested on: OVCAR-8 ovarian
# [31] = tested on: CCRF-CEM leukemia
# [32] = tested on: DU-145 prostate
# [33] = tested on: MCF7 breast
# [34] = tested on: SN12C renal
# [35] = tested on: OVCAR-3 ovarian
# [36] = tested on: PC-3 prostate
# [37] = tested on: HCT-116 colon
# [38] = tested on: NCI/ADR-RES ovarian
# [39] = tested on: HS 578T breast
# [40] = tested on: SF-295 CNS
# [41] = tested on: UACC-257 melanoma
# [42] = tested on: SF-268 CNS
# [43] = tested on: SNB-75 CNS
# [44] = tested on: OVCAR-4 ovarian
# [45] = tested on: MDA-MB-435
# [46] = tested on: A498 renal
# [47] = tested on: M14 melanoma
# [48] = tested on: SK-MEL-28 melanoma
# [49] = tested on: IGROV1 ovarian
# [50] = tested on: SK-MEL-5 melanoma
# [51] = tested on: UO-31 renal
# [52] = tested on: NCI-H23 lung
# [53] = tested on: TK-10 renal
# [54] = tested on: HOP-92 NSCLC
# [55] = tested on: SK-MEL-2 melanoma
# [56] = tested on: SW-620 colon
# [57] = tested on: SF-539 CNS
# [58] = tested on: CAKI-1 renal
structure (smiles),measurement,setting,value
C[C@@H]1[C@H]2[C@H](C=C3[C@@H]4CC[C@H]5Cc6nc7c(nc6C[C@]5(C)[C@H]4C[C@@H](O)[C@@]32C)C[C@@H]2CC[C@H]3C4=C[C@@H]5O[C@@]6(CC[C@](C)(CO)O6)[C@@H](C)[C@@]5(O)[C@@]4(C)[C@H](O)C[C@@H]3[C@@]2(C)C7)O[C@]12CCC(C)(C)O2,GI50,[1],861 nM
same,TGI,[1],5730 nM
same,GI50,[2],730 nM
same,TGI,[2],16200 nM
same,GI50,[3],322 nM
same,TGI,[3],2900 nM
same,GI50,[4],259 nM
same,TGI,[4],857 nM
same,GI50,[5],200 nM
same,TGI,[5],7060 nM
same,GI50,[6],466 nM
same,TGI,[6],4950 nM
same,GI50,[7],653 nM
same,TGI,[7],7280 nM
same,GI50,[8],405 nM
same,TGI,[8],> 41800 nM
same,GI50,[9],345 nM
same,TGI,[9],2300 nM
same,GI50,[10],70.6 nM
same,TGI,[10],333 nM
same,GI50,[11],338 nM
same,TGI,[11],15000 nM
same,GI50,[12],16000 nM
same,TGI,[12],56500 nM
same,GI50,[13],340 nM
same,TGI,[13],2470 nM
same,GI50,[14],148 nM
same,TGI,[14],752 nM
same,GI50,[15],348 nM
same,TGI,[15],2540 nM
same,GI50,[16],377 nM
same,TGI,[16],14100 nM
same,GI50,[17],430 nM
same,TGI,[17],8140 nM
same,GI50,[18],419 nM
same,TGI,[18],7760 nM
same,GI50,[19],1580 nM
same,TGI,[19],22700 nM
same,GI50,[20],81.9 nM
same,TGI,[20],723 nM
same,GI50,[21],472 nM
same,TGI,[21],5290 nM
same,GI50,[22],1220 nM
same,TGI,[22],19600 nM
same,GI50,[23],843 nM
same,TGI,[23],> 100000 nM
same,GI50,[24],292 nM
same,TGI,[24],926 nM
same,GI50,[25],2260 nM
same,TGI,[25],11800 nM
same,GI50,[26],3330 nM
same,TGI,[26],35600 nM
same,GI50,[27],809 nM
same,TGI,[27],14600 nM
same,GI50,[28],510 nM
same,TGI,[28],3600 nM
same,GI50,[29],469 nM
same,TGI,[29],2620 nM
same,GI50,[30],10100 nM
same,TGI,[30],> 100000 nM
same,GI50,[31],317 nM
same,GI50,[32],2870 nM
same,TGI,[32],37200 nM
same,GI50,[33],490 nM
same,TGI,[33],15300 nM
same,GI50,[34],11600 nM
same,TGI,[34],> 70300 nM
same,GI50,[35],5100 nM
same,TGI,[35],31800 nM
same,GI50,[36],391 nM
same,TGI,[36],6760 nM
same,GI50,[37],690 nM
same,TGI,[37],31200 nM
same,GI50,[38],11000 nM
same,TGI,[38],> 100000 nM
same,GI50,[39],165 nM
same,TGI,[39],890 nM
same,GI50,[40],69.8 nM
same,TGI,[40],259 nM
same,GI50,[41],13900 nM
same,TGI,[41],99200 nM
same,GI50,[42],756 nM
same,TGI,[42],31600 nM
same,GI50,[43],140 nM
same,TGI,[43],9540 nM
same,GI50,[44],7050 nM
same,TGI,[44],> 69700 nM
same,GI50,[45],2800 nM
same,TGI,[45],24300 nM
same,GI50,[46],236 nM
same,TGI,[46],543 nM
same,GI50,[47],1220 nM
same,TGI,[47],10500 nM
same,GI50,[48],518 nM
same,TGI,[48],21300 nM
same,GI50,[49],2160 nM
same,TGI,[49],62800 nM
same,GI50,[50],783 nM
same,TGI,[50],5200 nM
same,GI50,[51],275 nM
same,TGI,[51],1540 nM
same,GI50,[52],1610 nM
same,TGI,[52],23100 nM
same,GI50,[53],13300 nM
same,TGI,[53],72500 nM
same,GI50,[54],716 nM
same,TGI,[54],13300 nM
same,GI50,[55],900 nM
same,TGI,[55],18000 nM
same,GI50,[56],711 nM
same,TGI,[56],7920 nM
same,GI50,[57],114 nM
same,TGI,[57],4080 nM
Cc1cc(Nc2cc(CN3CCOCC3)c3nc(C)c(Cc4ccc(Cl)cc4F)n3n2)n[nH]1,GI50,[1],1840 nM
same,TGI,[1],9490 nM
same,GI50,[2],48.1 nM
same,TGI,[2],5600 nM
same,GI50,[3],282 nM
same,TGI,[3],1530 nM
same,GI50,[58],1740 nM
same,TGI,[58],4670 nM
same,GI50,[4],1590 nM
same,TGI,[4],6710 nM
same,GI50,[5],1520 nM
same,TGI,[5],5240 nM
same,GI50,[6],437 nM
same,TGI,[6],6630 nM
same,GI50,[7],6310 nM
same,TGI,[7],19000 nM
same,GI50,[8],1230 nM
same,TGI,[8],16200 nM
same,GI50,[9],473 nM
same,TGI,[9],13600 nM
same,GI50,[10],545 nM
same,TGI,[10],2130 nM
same,GI50,[11],1730 nM
same,TGI,[11],8920 nM
same,GI50,[12],1490 nM
same,TGI,[12],3130 nM
same,GI50,[13],1440 nM
same,TGI,[13],12300 nM
same,GI50,[14],1670 nM
same,TGI,[14],6180 nM
same,GI50,[15],2360 nM
same,TGI,[15],11300 nM
same,GI50,[17],2620 nM
same,TGI,[17],14900 nM
same,GI50,[18],768 nM
same,TGI,[18],2860 nM
same,GI50,[19],4350 nM
same,TGI,[19],20600 nM
same,GI50,[20],1880 nM
same,TGI,[20],14800 nM
same,GI50,[21],2020 nM
same,TGI,[21],6380 nM
same,GI50,[22],1800 nM
same,TGI,[22],7030 nM
same,GI50,[23],1630 nM
same,TGI,[23],10900 nM
same,GI50,[24],684 nM
same,TGI,[24],2010 nM
same,GI50,[25],566 nM
same,TGI,[25],2020 nM
same,GI50,[26],561 nM
same,TGI,[26],4070 nM
same,GI50,[27],919 nM
same,TGI,[27],6160 nM
same,GI50,[28],1110 nM
same,TGI,[28],2690 nM
same,GI50,[29],1570 nM
same,TGI,[29],5650 nM
same,GI50,[30],2790 nM
same,TGI,[30],17200 nM
same,GI50,[31],590 nM
same,TGI,[31],3940 nM
same,GI50,[32],1240 nM
same,TGI,[32],11500 nM
same,GI50,[33],644 nM
same,TGI,[33],12900 nM
same,GI50,[34],1140 nM
same,TGI,[34],15900 nM
same,GI50,[35],3240 nM
same,TGI,[35],15300 nM
same,GI50,[36],2070 nM
same,TGI,[36],18300 nM
same,GI50,[37],689 nM
same,TGI,[37],2650 nM
same,GI50,[38],4280 nM
same,TGI,[38],18700 nM
same,GI50,[39],915 nM
same,TGI,[39],5600 nM
same,GI50,[40],1790 nM
same,TGI,[40],5730 nM
same,GI50,[41],3350 nM
same,TGI,[41],16200 nM
same,GI50,[42],1030 nM
same,TGI,[42],4650 nM
same,GI50,[43],433 nM
same,TGI,[43],2400 nM
same,GI50,[44],2850 nM
same,TGI,[44],16700 nM
same,GI50,[45],694 nM
same,TGI,[45],19600 nM
same,GI50,[46],288 nM
same,TGI,[46],1100 nM
same,GI50,[47],1830 nM
same,TGI,[47],14200 nM
same,GI50,[48],3500 nM
same,TGI,[48],17200 nM
same,GI50,[49],2150 nM
same,TGI,[49],5570 nM
same,GI50,[50],2270 nM
same,TGI,[50],8720 nM
same,GI50,[51],1410 nM
same,TGI,[51],2970 nM
same,GI50,[52],1720 nM
same,TGI,[52],8350 nM
same,GI50,[53],2140 nM
same,TGI,[53],6610 nM
same,GI50,[54],1650 nM
same,TGI,[54],5010 nM
same,GI50,[55],2370 nM
same,TGI,[55],7640 nM
same,GI50,[56],1070 nM
same,TGI,[56],14300 nM
same,GI50,[57],1360 nM
same,TGI,[57],3260 nM
